Data from EP3892734B1, “SCREENING METHODS AND THERAPEUTIC APPLICATIONS BASED ON BACTERIAL MOTILITY INHIBITION” (Ludwig-Maximilians-Universität München, priority 2020, dated 2021).
≈ marks a conversion by molar mass, not a printed value. Where “and” joins values, the source holds several entries; their conditions need not be identical. Identical values can stand only once. Like-named read-outs stand apart in the source and are kept apart here.

What was measured:
[1] = tested on: H. pylori flaA-luciferase reporter strain N6; experiment: microbe, parasite or virus in culture; assay type: cell-based, Helicobacter pylori
Source text: The H. pylori flaA promoter was fused with a luciferase operon (luxAB) from Vibrio harveyi in a H. pylori suicide plasmid (Niehus, Ye, Suerbaum, & Josenhans, 2002). The flaA reporter fusion was recombined into the H. pylori chromosome and the resulting strain tested to be strongly luminescence positive. The reporter strain (N6 flaA-lux4B) activated luminescence to about 40,000 to 60,000 counts per second using luciferase substrate at an OD600 of 0.8 (mid-log phase) in liquid culture. The negative control value of a non-reporter strain or reporter strain without luminescence substrate was close to zero. […] The Z-Factor (Zhang et al., 1999) determined for the assay with various bacterial inhibitors measured in quadruplicates or triplicates was routinely between 0.6 and 0.7, with a confidence interval of 95%.
H. pylori luminescence reporter strains were passaged on blood agar plates less than 22 hours prior to the start of the experiment. The passage number for these assays was not higher than five to preserve the strain's properties and genetic stability. Luciferase reaction buffer was prepared as follows: 50 mM disodium phosphate (Na2HPO4) and 2% BSA were dissolved in HPLC water, filter sterilized, aliquoted and frozen at - 20°C.
Bacteria were harvested in brain-heart infusion medium (BHI, 3% yeast extract with 5% horse serum added) and adjusted to an OD600 of 0.8 at room temperature. 50 µl of the bacterial suspension were added per well of a 96 well plate (non-binding, Greiner Bio-One 655901). 2 µl of each of the test compounds (provided as a 10 mM DMSO solution) were added to the sample wells. The same amount of pure, diluted DMSO was added to the control wells for a concentration of a maximum of 4% DMSO per well, since higher concentrations will interfere with metabolic functions of H. pylori and cause false negative results. The microwell plate was incubated inside a sterile sealed PM Gas Bag (BIOLOG #3032) together with a CampyGen Compact pack (Oxoid) to generate microaerobic conditions at 37°C and with shaking at 175 rpm for 4 h.
Shortly before taking the measurement, the luciferase substrate was prepared by diluting the luminescence substrate decanal (10% stock, Sigma Aldrich) at a 1 :2,000 dilution in luciferase reaction buffer. 60 µl of the substrate were added per well of a white 96 microwell plate (Thermo Scientific #236105) without the lid.
For the final luciferase measurement, 10 µl of bacterial solution were transferred with the epMotion 96 (Eppendorf) simultaneously to the wells containing the luciferase substrate and incubated on a microwell plate shaker for 10 s to lyse the bacteria. The measurements were recorded with a Perkin Elmer Victor 3/WNallac 1420 plate reader (luminometry, measurement time: 0.5 sec) and integrated to counts per sec. For the background measurement, 10 µl sterile medium containing 4% DMSO was added to the wells. For each measurement, at least four luciferase reporter positive control wells (without inhibitory compound) and four negative control wells (background without bacteria) were run on the same day and under the same assay conditions in parallel.

flagellin protein FlaA = experiment: Western immunoblot of flagellin FlaA in bacterial fractions; assay type: cell-based, H. pylori; conditions: Western blot, soluble and surface-associated fractions, time point T2
Source text: • Fig. 1: Developing and establishing a screening system by primary luciferase-based reporter screen for flagellar expression and biosynthesis of H. pylori in multi-well plates and identification of active small compounds by the screen. A) Results of luciferase flagellar reporter screen for one exemplary library of more than 1200 compounds; each dot represents one compound result. […] Inhibitory as well as enhancing activities of the compounds were observed. Yellow markings depict the borders of the Z-factor, corresponding to the three-fold standard error of the positive (non-inhibited) controls. […] Tracking assays with H. pylori were performed in liquid medium (RPMI1640 with 3% horse serum) and movies recorded in a CELL-R live imaging system (Olympus, see methods). A) Stops/reversals during the swimming runs of the bacteria as a measure of intact taxis and directional motility and curvilinear velocity (CLV) were quantitated as described in (Behrens et al., 2016). […] Two different time points of an H. pylori growth curve in liquid BHI medium (3% yeast extract, 5% horse serum), T1 (early exponential) T2 (late exponential growth) were monitored for differences in protein expression in the presence (+) or absence of Active 2 compound. […] Highquality sequences obtained from cagL positive PCRs in the absence of positive culture are boxed; respective Sanger sequence reads are shown in B). […]

## Cn1c(CSC(=N)N)c(Cl)c(=O)n1-c1ccccc1 [Active 2]
[1]; H. pylori flaA-luciferase reporter strain N6, Table 6
  IC50: 2.75 µg/mL (≈ 9.27 µM)
[1]; H. pylori screen
  Luciferase assay (% of control): 2,6 % of control
[1]; Helicobacter pylori, H. pylori flaA-luciferase reporter strain N6, Table 6
  IC50: < 4.5 µg/mL
[1]; Helicobacter pylori, read-out: IC50 (luciferase assay), luciferase flagellar reporter assay, Table 3
  IC50: 2.74 µg/mL and 8 µM
[1]; result in words
  inhibitory activity in luciferase reporter assay: strong inhibitor in the primary anti-flagellar reporter screen
Flagellin protein FlaA
  amount of major flagellin FlaA: significant reduction of main flagellin FlaA at time point T2
Flagellin protein FlaA; listed as Active 2/BL2
  amount of major flagellin FlaA: reduced the amounts of the major flagellin, FlaA
